Laboratory results: PubChem BioAssay (NCI)
“And” between values parts separate entries of the source, which are not always exact repeats. Equal values may be shown once.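 1) Cells in 96-well plates. 2) Compound, 48 h, 5 concentrations. 3) Linear interpolation between surrounding doses. 4) Unreached endpoint = highest concentration. At the GI50, growth is halved. Definition used: TGI = concentration required for complete inhibition of growth.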

How the values were obtained:
Test in all cases: NCI tumour cell line growth inhibition, 48 h
OVCAR-5 ovarian = system: OVCAR-5 ovarian
M14 melanoma = system: M14 melanoma
NCI-H23 lung = system: NCI-H23 lung
SF-539 CNS = system: SF-539 CNS
MOLT-4 leukemia = system: MOLT-4 leukemia
HT29 colon = system: HT29 colon
A498 renal = system: A498 renal
RXF 393 renal = system: RXF 393 renal
U251 CNS = system: U251 CNS
UO-31 renal = system: UO-31 renal

| SMILES | GI50 (OVCAR-5 ovarian) [µM] | TGI (OVCAR-5 ovarian) [µM] | GI50 (M14 melanoma) [µM] | TGI (M14 melanoma) [µM] | GI50 (NCI-H23 lung) [µM] | TGI (NCI-H23 lung) [µM] | GI50 (SF-539 CNS) [µM] | TGI (SF-539 CNS) [µM] | GI50 (MOLT-4 leukemia) [µM] | TGI (MOLT-4 leukemia) [µM] | GI50 (HT29 colon) [µM] | TGI (HT29 colon) [µM] | GI50 (A498 renal) [µM] | TGI (A498 renal) [µM] | GI50 (RXF 393 renal) [µM] | TGI (RXF 393 renal) | GI50 (U251 CNS) [µM] | TGI (U251 CNS) [µM] | GI50 (UO-31 renal) [µM] | TGI (UO-31 renal) |
| --- | --- | --- | --- | --- | --- | --- | --- | --- | --- | --- | --- | --- | --- | --- | --- | --- | --- | --- | --- | --- |
| Nc1ccc2c(c1)c(N)nn2C(=O)Nc1ccc(Cc2ccccc2)cc1 | 22.6 | 60.5 | 4.59 | 17.8 | 16.9 | 39.5 | 8.7 | 22.1 | 4.48 | 24.3 | 4.51 | 17.2 | 14.4 | 28.4 | 21.4 | 43.9 µM | 6.53 | 20.9 | 4.72 | 32.6 µM |
| Cc1nc(N)nc2ccccc12 | – | > 100 | – | > 100 | – | > 100 | – | > 100 | – | > 100 | – | > 100 | – | > 100 | – | > 100 µM | – | > 100 | – | > 100 µM |
| C=[CH][Sn]([CH]=C)([O]c1cccc2cccnc12)[O]c1cccc2cccnc12 | 5.16 | 13.8 | 2.11 | 5.92 | 2.32 | 6.87 | 2.85 | 9.27 | 1.42 | 11.1 | 3.26 | 7.14 | 5.88 | 14.2 | 0.28 | 1.21 µM | 2.58 | 6.67 | 3.25 | 9.31 µM |
| COc1ccccc1NC(=O)C(CC(C(=O)Nc1ccccc1OC)/C(C)=N/Nc1ccc([N+](=O)[O-])cc1[N+](=O)[O-])/C(C)=N/Nc1ccc([N+](=O)[O-])cc1[N+](=O)[O-] (stereo not drawn) | – | > 100 | – | > 100 | – | > 100 | – | > 100 | – | > 100 | – | > 100 | – | > 100 | – | > 100 µM | – | > 100 | – | > 100 µM |
| COc1cc(/C=C(\C#N)C(N)=C(C#N)C#N)cc(O)c1O | – | > 100 | – | > 100 | – | > 100 | – | > 100 | – | > 100 | – | > 100 | – | > 100 | – | > 100 µM | – | > 100 | – | > 100 µM |
| Nc1ccc(S(=O)(=O)Nc2cnc3c(Cl)cccc3n2)cc1 | > 80.7 | > 750 | – | > 750 | > 82.4 | 549 | > 94.6 | 513 | 65.6 | 565 | > 82.8 | > 750 | – | 597 | 9.52 | > 31.6 µM and 460 µM | 68 | > 750 | > 55.8 | > 56.2 µM and 742 µM |
| Cc1nc(-n2nc(-c3ccccc3)cc2-c2ccccc2)sc1C(/C=C/c1ccc([N+](=O)[O-])cc1)=N/NC(=O)c1ccncc1 | – | > 100 | – | 50.7 | – | 40.6 | – | 41.5 | – | 43.4 | – | > 100 | – | > 100 | – | 76.6 µM | – | > 100 | – | 90.4 µM |
| CC1COCC(C)N1C1=C(Cl)C(=O)c2ccccc2C1=O (stereo not drawn) | 17 | 32 | 6.53 | 19.5 | 11.2 | 24.7 | 14.3 | 28.1 | 2.77 | 7.5 | 17.5 | 45.6 | 14.4 | 27.6 | 1.9 | 4.22 µM | 11.6 | 25.7 | 1.39 | 2.73 µM |
